Reference: US8217063B2, “Lactam-substituted dicarboxylic acids and use thereof” (Bayer Intellectual Property GmbH, priority 2007, dated 2012)

Key:
[1] = molecular target: T1, recombinant guanylate cyclase reporter cell line (Rattus norvegicus, UniProt P20595); assay: sGC-activating activity in the CHO reporter cell in vitro; format: cell-based
T1 construct: expressed in transfected cells; host or cells: CHO
T1 sequence (P20595 1-619): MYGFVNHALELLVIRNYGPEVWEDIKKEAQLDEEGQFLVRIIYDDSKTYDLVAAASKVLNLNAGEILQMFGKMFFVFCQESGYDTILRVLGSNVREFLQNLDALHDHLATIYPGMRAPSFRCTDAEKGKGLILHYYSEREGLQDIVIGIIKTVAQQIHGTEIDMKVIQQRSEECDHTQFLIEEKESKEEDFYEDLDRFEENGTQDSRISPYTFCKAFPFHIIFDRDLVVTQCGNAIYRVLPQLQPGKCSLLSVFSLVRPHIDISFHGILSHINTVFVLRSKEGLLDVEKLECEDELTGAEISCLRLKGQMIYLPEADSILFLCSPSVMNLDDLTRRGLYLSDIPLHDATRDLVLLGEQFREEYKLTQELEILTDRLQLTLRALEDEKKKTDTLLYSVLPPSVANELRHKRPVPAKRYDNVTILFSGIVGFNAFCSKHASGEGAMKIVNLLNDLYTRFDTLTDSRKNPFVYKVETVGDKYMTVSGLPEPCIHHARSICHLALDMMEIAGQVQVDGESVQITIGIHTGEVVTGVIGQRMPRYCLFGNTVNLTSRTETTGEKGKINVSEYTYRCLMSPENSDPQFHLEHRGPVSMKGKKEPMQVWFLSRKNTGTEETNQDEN
T1 sequence (P19686 1-690 partner): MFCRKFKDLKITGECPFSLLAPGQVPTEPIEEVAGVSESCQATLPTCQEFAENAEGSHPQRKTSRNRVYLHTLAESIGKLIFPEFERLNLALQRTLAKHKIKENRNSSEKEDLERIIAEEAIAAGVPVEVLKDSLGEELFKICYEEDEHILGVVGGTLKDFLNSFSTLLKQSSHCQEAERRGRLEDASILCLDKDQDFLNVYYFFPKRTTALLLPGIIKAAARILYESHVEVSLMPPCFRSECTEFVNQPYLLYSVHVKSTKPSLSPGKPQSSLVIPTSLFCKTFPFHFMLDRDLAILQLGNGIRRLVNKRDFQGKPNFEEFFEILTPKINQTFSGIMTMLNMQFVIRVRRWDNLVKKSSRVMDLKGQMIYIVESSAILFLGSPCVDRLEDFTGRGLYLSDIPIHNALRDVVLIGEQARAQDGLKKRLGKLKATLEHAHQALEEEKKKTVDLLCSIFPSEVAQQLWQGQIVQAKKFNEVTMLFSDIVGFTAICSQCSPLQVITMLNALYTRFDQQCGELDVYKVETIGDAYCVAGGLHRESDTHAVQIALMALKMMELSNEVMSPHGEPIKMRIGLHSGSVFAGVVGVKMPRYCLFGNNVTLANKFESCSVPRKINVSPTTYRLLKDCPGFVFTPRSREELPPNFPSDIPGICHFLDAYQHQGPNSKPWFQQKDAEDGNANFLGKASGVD
Protocol: B-3. Action at Recombinant Guanylate Cyclase Reporter Cell Lines
The cellular action of the compounds according to the invention is determined using a recombinant guanylate cyclase reporter cell line, as described in F. Wunder et al., Anal. Biochem. 339, 104-112 (2005).

saphenous artery = assay: Vasorelaxant effect in vitro (phenylephrine-contracted artery rings); design: species or system Rabbits; conditions: Oryctolagus cuniculus; rabbit saphenous artery rings, contraction induced by phenylephrine
Protocol: B-1. Vasorelaxant Effect In Vitro:
Rabbits are anesthetized and sacrificed by intravenous injection of thiopental sodium (about 50 mg/kg) and exsanguinated. The saphenous artery is removed and divided into rings 3 mm wide. The rings are mounted singly on in each case a pair of triangular hooks open at the end and made of 0.3 mm-thick special wire (Remanium®). Each ring is placed under an initial tension in 5 ml organ baths with Krebs-Henseleit solution which is at 37° C., is gassed with carbogen and has the following composition: NaCl 119 mM; KCl 4.8 mM; CaCl2×2H2O 1 mM; MgSO4×7H2O 1.4 mM; KH2PO4 1.2 mM; NaHCO3 25 mM; glucose 10 mM; bovine serum albumin 0.001%. The force of contraction is detected with Statham UC2 cells, amplified and digitized via A/D converters (DAS-1802 HC, Keithley Instruments, Munich) and recorded in parallel on chart recorders. Contractions are induced by addition of phenylephrine.
After several (generally 4) control cycles, the substance to be investigated is added in each further run in increasing dosage, and the height of the contraction achieved under the influence of the test substance is compared with the height of the contraction reached in the last preceding run. The concentration necessary to reduce the contraction reached in the preceding control by 50% is calculated from this (IC50). The standard application volume is 5 μl. The proportion of DMSO in the bath solution corresponds to 0.1%.

Heme-containing sGC = molecular target: T2, Heme-containing sGC (Rattus norvegicus, UniProt P20595); assay: Stimulation of recombinant soluble guanylate cyclase (sGC) in vitro, heme-containing enzyme; format: biochemical; conditions: 0.0 μM Example 3
T2 construct: made in house; host or cells: baculovirus/Sf9
T2 sequence (P20595 1-619): T1 sequence (P20595 1-619)
T2 sequence (P19686 1-690 partner): T1 sequence (P19686 1-690 partner)
Excerpt: B-2. Stimulation of Recombinant Soluble Guanylate Cyclase (sGC) In Vitro:
Hoenicka, E. M. Becker, H. Apeler, T. Sirichoke, H. Schroeder, R. Gerzer and J.-P. Stasch, “Purified soluble guanylyl cyclase expressed in a baculovirus/Sf9 system: Stimulation by YC-1, nitric oxide, and carbon oxide”, J. Mol. Med. 77 (1999), 14-23. The heme-free guanylate cyclase is obtained by adding Tween 20 to the sample buffer (0.5% in the final concentration).
The activation of sGC by a test substance is reported as n-fold stimulation of the basal activity.

Row | Structure (SMILES) | MEC (minimum effective concentration) [1] | IC50 (saphenous artery) | further results
1 | O=C(O)c1ccc(CCC(/C=C/c2ccccc2OCCCCCN2CCCCC2=O)Cc2ccc(C(=O)O)cc2)cc1 (racemic) [Example 7, 4-[(4E)-3-(4-Carboxybenzyl)-5-(2-{[5-(2-oxopiperidin-1-yl)pentyl]oxy}phenyl)pent-4-en-1-yl]-benzoic acid] | 1 nM | – | –
2 | O=C(O)c1ccc(CCC(/C=C/c2ccccc2OCCCCCN2CCOC2=O)Cc2ccc(C(=O)O)cc2)cc1 (racemic) [Example 8, 4-[(4E)-3-(4-Carboxybenzyl)-5-(2-{[5-(2-oxo-1,3-oxazolidin-3-yl)pentyl]oxy}phenyl)pent-4-en-1-yl]benzoic acid] | 1 nM | – | –
3 | CN1CCCN(CCCCCOc2ccccc2/C=C/C(CCc2ccc(C(=O)O)cc2)Cc2ccc(C(=O)O)cc2)C1=O (racemic) [Example 10, 4-[(4E)-3-(4-Carboxybenzyl)-5-(2-{[5-(3-methyl-2-oxotetrahydropyrimidin-1(2H)-yl)pentyl]oxy}-phenyl)pent-4-en-1-yl]benzoic acid] | 3 nM | – | –
4 | O=C(O)c1ccc(CCC(/C=C/c2ccccc2OCCCCN2CCCC2=O)Cc2ccc(C(=O)O)cc2)cc1 (racemic) [Example 11, 4-[(4E)-3-(4-Carboxybenzyl)-5-{2-[4-(2-oxopyrrolidin-1-yl)butoxy]phenyl}pent-4-en-1-yl]benzoic acid] | <1 nM | – | –
5 | O=C(O)c1ccc(CCC(/C=C/c2ccccc2OCCN2CCOC2=O)Cc2ccc(C(=O)O)cc2)cc1 (racemic) [Example 12, 4-[(4E)-3-(4-Carboxybenzyl)-5-{2-[2-(2-oxo-1,3-oxazolidin-3-yl)ethoxy]phenyl}pent-4-en-1-yl]-benzoic acid] | 100 nM | – | –
6 | O=C(O)c1ccc(CCC(/C=C/c2ccccc2OCCCN2CCOCC2=O)Cc2ccc(C(=O)O)cc2)cc1 (single isomer, unassigned) [Example 4, 4-[(4E)-3-(4-Carboxybenzyl)-5-{2-[3-(3-oxomorpholin-4-yl)propoxy]phenyl}pent-4-en-1-yl]-benzoic acid] | 2 nM | 330 nM | –
7 | O=C(O)c1ccc(CCC(/C=C/c2ccccc2OCCCN2CCOC2=O)Cc2ccc(C(=O)O)cc2)cc1 (single isomer, unassigned) [Example 5, 4-[(4E)-3-(4-Carboxybenzyl)-5-{2-[3-(2-oxo-1,3-oxazolidin-3-yl)propoxy]phenyl}pent-4-en-1-yl]-benzoic acid] | – | 58 nM | –
8 | O=C(O)c1ccc(CCC(/C=C/c2cc(F)ccc2OCCCN2CCCC2=O)Cc2ccc(C(=O)O)cc2)cc1 (single isomer, unassigned) [Example 6, 4-[(4E)-3-(4-Carboxybenzyl)-5-{5-fluoro-2-[3-(2-oxopyrrolidin-1-yl)propoxy]phenyl}pent-4-en-1-yl]benzoic acid] | 3 nM | 135 nM | –
9 | CCN(CC)[N+]([O-])=NO [DEA/NO, 2-(N,N-diethylamino)diazenolate 2-oxide, reference compound] | – | – | Stimulation (n-fold) of sGC by DEA/NO alone (Heme-containing sGC; 0.1 μM DEA/NO): 18.5 n-fold
10 | O=C(O)c1ccc(CCC(/C=C/c2cc(F)ccc2OCCCN2CCCC2=O)CCc2ccc(C(=O)O)cc2)cc1 [Example 1, 4-[(4E)-3-[2-(4-Carboxyphenyl)ethyl]-5-{5-fluoro-2-[3-(2-oxopyrrolidin-1-yl)propoxy]phenyl}-pent-4-en-1-yl]benzoic acid] | 3 nM | 390 nM | –
11 | O=C(O)c1ccc(CCC(/C=C/c2ccccc2OCCCN2CCCC2=O)CCc2ccc(C(=O)O)cc2)cc1 [Example 2, 4-[(4E)-3-[2-(4-Carboxyphenyl)ethyl]-5-{2-[3-(2-oxopyrrolidin-1-yl)propoxy]phenyl}pent-4-en-1-yl]benzoic acid] | 3 nM | 255 nM | –
12 | CC1OCCN(CCCCCOc2ccccc2/C=C/C(CCc2ccc(C(=O)O)cc2)Cc2ccc(C(=O)O)cc2)C1=O (centres unmarked) [Example 9, 4-[(4E)-3-(4-Carboxybenzyl)-5-(2-[5-(2-methyl-3-oxomorpholin-4-yl)pentyl]oxy 1-phenyl)pent-4-en-1-yl]benzoic acid] | 1 nM | – | –
13 | O=c1onc2cnc3ccccc3n12 [ODQ, 1H-1,2,4-oxadiazole-(4,3a)-quinoxalin-1-one, reference compound] | – | – | Stimulation (n-fold) of sGC with ODQ alone (Heme-containing sGC; 10 μM ODQ): 3.9 n-fold
